According to patent US9139609B2, “C-4″ position substituted macrolide derivative” (priority 2011, dated 2015):
In brackets after ≈: the same amount, converted by molar mass.

Experiments:
[1] = tested on: Haemophilus infuenzae ATCC43095; test: In vitro antibacterial activity, microbroth dilution method (CLSI method), test bacterium A; format: cell-based; details: for MIC: read-out: MIC (minimum inhibitory concentration), test bacterium A
Description: (§1) In vitro antibacterial activities of the compounds of the present invention against various test bacteria were measured according to the microbroth dilution method (CLSI method). Among them, the bacteria C, D and E are erythromycin resistant bacteria. The MIC values (minimum inhibitory concentration, μg/ml) for the test bacteria A and B are exemplified in Table 22.

[2] = tested on: Streptococcus pneumoniae ATCC49619; test: In vitro antibacterial activity, microbroth dilution method (CLSI method), test bacterium B; format: cell-based; details: for MIC: read-out: MIC (minimum inhibitory concentration), test bacterium B
Description: as §1

| Compound | MIC [1] [µg/mL] | MIC [2] [µg/mL] | MIC (minimum inhibitory concentration), test bacterium A [1] [µg/mL] | MIC (minimum inhibitory concentration), test bacterium B [2] [µg/mL] |
| --- | --- | --- | --- | --- |
| CC[C@H]1OC(=O)[C@H](C)[C@@H](O[C@H]2C[C@@](C)(OC)[C@@](O)(CN(C)C(=O)CN(CC)CC)[C@H](C)O2)[C@H](C)[C@@H](O[C@@H]2O[C@H](C)C[C@H](N(C)C)[C@H]2O)[C@@](C)(OC)C[C@@H](C)C(=O)[C@H](C)[C@H]2NC(=O)O[C@@]21C [Example329] | 8 (≈ 8.61 µM) | 0.03 (≈ 0.0323 µM) | – | – |
| CC[C@H]1OC(=O)[C@H](C)[C@@H](O[C@H]2C[C@@](C)(OC)[C@@](O)(CN(C)CCN(CC)C3CCC3)[C@H](C)O2)[C@H](C)[C@@H](O[C@@H]2O[C@H](C)C[C@H](N(C)C)[C@H]2O)[C@@](C)(OC)C[C@@H](C)C(=O)[C@H](C)[C@H]2N(CCCS(C)(=O)=O)C(=O)O[C@]12C [Example418] | 4 (≈ 3.77 µM) | 0.03 (≈ 0.0283 µM) | – | – |
| CC[C@H]1OC(=O)[C@H](C)[C@@H](O[C@H]2C[C@@](C)(OC)[C@@](O)(CN(C)CCN(C)C(C)(C)c3ccccc3OC)[C@H](C)O2)[C@H](C)[C@@H](O[C@@H]2O[C@H](C)C[C@H](N(C)C)[C@H]2O)[C@@](C)(OC(N)=O)C[C@@H](C)C(=O)[C@H](C)[C@H]2NC(=O)O[C@@]21C [Example342] | 4 (≈ 3.81 µM) | 0.06 (≈ 0.0571 µM) | – | – |
| CC[C@H]1OC(=O)[C@H](C)[C@@H](O[C@H]2C[C@@](C)(OC)[C@@](O)(CN(C)CCN(CC)C(=O)OC)[C@H](C)O2)[C@H](C)[C@@H](O[C@@H]2O[C@H](C)C[C@H](N(C)C)[C@H]2O)[C@@](C)(OC)C[C@@H](C)C(=O)[C@H](C)[C@H]2NC(=O)O[C@@]21C [Example264] | 8 (≈ 8.46 µM) | 0.06 (≈ 0.0635 µM) | – | – |
| CC[C@H]1OC(=O)[C@H](C)[C@@H](O[C@H]2C[C@@](C)(OC)[C@@](O)(CN(C)CCN(C)C(C)(C)c3ccccc3OC)[C@H](C)O2)[C@H](C)[C@@H](O[C@@H]2O[C@H](C)C[C@H](N(C)C)[C@H]2O)[C@@]2(C)C[C@@H](C)C3(NCCN4C(=O)O[C@@]1(C)[C@H]4[C@H]3C)O2 [Example341] | – | – | 4 (≈ 3.87 µM) | 0.06 (≈ 0.0581 µM) |

Further molecules by falling MIC [1], results first:

| MIC [1] [µg/mL] | MIC [2] [µg/mL] | MIC (minimum inhibitory concentration), test bacterium A [1] [µg/mL] | MIC (minimum inhibitory concentration), test bacterium B [2] [µg/mL] | Compound |
| --- | --- | --- | --- | --- |
| 8 (≈ 8.88 µM) | 0.016 (≈ 0.0178 µM) | – | – | CC[C@H]1OC(=O)[C@H](C)[C@@H](O[C@H]2C[C@@](C)(OC)[C@@](O)(CN(C)CCN(C)C)[C@H](C)O2)[C@H](C)[C@@H](O[C@@H]2O[C@H](C)C[C@H](N(C)C)[C@H]2O)[C@@](C)(OC)C[C@@H](C)C(=O)[C@H](C)[C@H]2N(C)C(=O)O[C@]12C [Example183] |
| 8 (≈ 8.61 µM) | 0.06 (≈ 0.0646 µM) | – | – | CC[C@H]1OC(=O)[C@H](C)[C@@H](O[C@H]2C[C@@](C)(OC)[C@@](O)(CN(C)CCN(CC)C(C)=O)[C@H](C)O2)[C@H](C)[C@@H](O[C@@H]2O[C@H](C)C[C@H](N(C)C)[C@H]2O)[C@@](C)(OC)C[C@@H](C)C(=O)[C@H](C)[C@H]2NC(=O)O[C@@]21C [Example263] |
| 8 (≈ 7.65 µM) | 0.06 (≈ 0.0573 µM) | – | – | CC[C@H]1OC(=O)[C@H](C)[C@@H](O[C@H]2C[C@@](C)(OC)[C@@](O)(CN(C)CCN(C)C(C)(C)c3ccccc3OC)[C@H](C)O2)[C@H](C)[C@@H](O[C@@H]2O[C@H](C)C[C@H](N(C)C)[C@H]2O)[C@@](C)(OC)C[C@@H](C)C2=NCCN3C(=O)O[C@@]1(C)[C@H]3[C@H]2C [Example338] |
| 4 (≈ 4.04 µM) | 0.06 (≈ 0.0605 µM) | – | – | CC[C@H]1OC(=O)[C@H](C)[C@@H](O[C@H]2C[C@@](C)(OC)[C@@](O)(CN(C)CCN(C)C(C)(C)c3ccccc3OC)[C@H](C)O2)[C@H](C)[C@@H](O[C@@H]2O[C@H](C)C[C@H](N(C)C)[C@H]2O)[C@]2(C)C[C@@H](C)C(O2)[C@H](C)[C@H]2NC(=O)O[C@@]21C [Example332] |
| 4 (≈ 3.76 µM) | 0.03 (≈ 0.0282 µM) | – | – | CC[C@H]1OC(=O)[C@H](C)[C@@H](O[C@H]2C[C@@](C)(OC)[C@@](O)(CN(C)CCN(C(C)C)C(C)C)[C@H](C)O2)[C@H](C)[C@@H](O[C@@H]2O[C@H](C)C[C@H](N(C)C)[C@H]2O)[C@@](C)(OC)C[C@@H](C)C(=O)[C@H](C)[C@H]2N(CCNS(C)(=O)=O)C(=O)O[C@]12C [Example404] |
